The text below walks through data of patent US7687473B2, “5-amino-4-imidazolecarboxamide riboside and its nucleobase as potentiators of antifolate transport and metabolism” (Health Research, Inc., priority 2005, dated 2010).

Series [1] concerns the target T1, reduced folate carrier (RFC) (Homo sapiens, UniProt P41440).
T1 construct: endogenous in cells; host or cells: CCRF-CEM (parental)
T1 sequence (P41440 1-591): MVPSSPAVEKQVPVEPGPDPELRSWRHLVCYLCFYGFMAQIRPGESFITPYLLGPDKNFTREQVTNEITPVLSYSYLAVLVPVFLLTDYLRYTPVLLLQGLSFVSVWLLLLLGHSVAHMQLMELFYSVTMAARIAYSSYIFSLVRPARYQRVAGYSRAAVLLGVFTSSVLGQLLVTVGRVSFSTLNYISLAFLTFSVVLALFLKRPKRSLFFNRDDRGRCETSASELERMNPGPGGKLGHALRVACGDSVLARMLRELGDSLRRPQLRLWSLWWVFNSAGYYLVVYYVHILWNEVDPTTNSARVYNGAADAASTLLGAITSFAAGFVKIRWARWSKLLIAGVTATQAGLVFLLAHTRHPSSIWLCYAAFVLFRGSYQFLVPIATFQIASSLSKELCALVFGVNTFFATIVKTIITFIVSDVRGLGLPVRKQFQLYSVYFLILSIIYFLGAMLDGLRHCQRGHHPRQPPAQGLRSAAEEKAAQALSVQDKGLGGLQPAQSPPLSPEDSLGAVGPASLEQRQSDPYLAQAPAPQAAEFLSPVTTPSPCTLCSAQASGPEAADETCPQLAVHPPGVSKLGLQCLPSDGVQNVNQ
In words: Kinetic constants for influx of [3H]MTX by CCRF-CEM cells. The format is cell-based. On the procedure:
(§1) Quantitation of folate and antifolate uptake. The method is essentially as follows. Briefly, logarithmically growing (3-5×10^5/ml) CCRF-CEM cells were harvested at room temperature by centrifugation at 1000×g for 5 min. After washing with the appropriate medium, cells were suspended at ≈2×10^7 cells/ml for use in transport studies. […] Anion-free MHS contains 250 mM sucrose and 20 mM HEPES, titrated to pH 7.4 with MgO. […] Uptake was measured as a function of time for 30 min (for rate and extent measurements) or over 5 min (studies requiring initial velocities). […] Uptake was terminated by diluting 100 μL samples into 1 ml of iced 0.9% NaCl. […] The supernatant was aspirated. The cell pellet was washed once with 1 ml iced 0.9% NaCl and centrifuged as above. The washed pellet was solubilized in 1 ml of 0.3% Triton X-100 by incubation for 60 min at 37° C. The solubilized pellet was transferred to a scintillation vial, 10 ml of Liquiscint (National Diagnostics, Atlanta, Ga.) was added and radioactivity was quantitated in a Beckman Model LS6500 liquid scintillation counter. Separate samples at the longest incubation time used in a particular experiment were harvested for HPLC analysis of intracellular contents as above, except that after the second wash the pellets were extracted with 1 ml boiling 0.1 M Na-phosphate, pH 5.5. The extract was clarified by centrifugation and the supernatant was filtered through an MPS-1 filter unit (Amicon) prior to HPLC analysis.
Inhibition of the vi of uptake was measured after pre-incubation of CCRF-CEM cells either with TMTX alone (measuring inhibition at the RFC) or with TMTX+Z (measuring inhibition during Z potentiation). […] All studies were carried out in standard transport medium. Inhibitory potency was measured in two series of experiments and AMT was included in each series as an internal control. Values are average±range of two determinations. […] Values are average±range for duplicate determinations.

Series [2] has as its system CCRF-CEM cells. Kind of series: [3H]MTX uptake (initial velocity and 30 min accumulation) in CCRF-CEM cells. The format is cell-based, human. Conditions: for Q10 for extent of [3H]MTX uptake at 30 min / Q10 for vi of [3H]MTX uptake (37° vs. 27°): 1 μM TMTX; for Vmax/Kt from vi (0-5 min) data: 1-10 μM MTX. The procedure:
as §1

Series [3] relates to CCRF-CEM cells. In words: [3H]MTX efflux from CCRF-CEM cells.
The test system of series [4] is CCRF-CEM human leukemia cells. Kind of series: Synthesis of methotrexate polyglutamates by CCRF-CEM cells. It counts as cell-based. On the procedure:
MTX polyglutamate synthesis. […] At the end of the exposure cells were rapidly chilled to 4 degrees C., harvested by centrifugation at 1000×g for 5 min, washed twice with iced 0.9% NaCl by centrifugation in the same manner. One mL of boiling 50 mM Na-phosphate, pH 5.5 was added, the pellet was triturated and the sample boiled for 5 min. The sample was rapidly cooled to 4 degrees C. Debris was removed by centrifugation as above. The supernatant was further clarified by centrifugation through an Amicon MPS-1 filter unit. […] A suitable volume was injected onto a reversed-phase HPLC column (C18) and eluted with a gradient of from 4-14% acetonitrile over about 43 min. One min fractions were collected and, after addition of 10 ml scintillation fluid, were quantitated by liquid scintillation counting.

Series [5] relates to araC 8C subline of CCRF-CEM. In words: [3H]MTX uptake in es-deficient araC 8C subline. It counts as cell-based, human. The conditions noted are these: 30 min time course ±Z. The procedure: Z potentiation was evaluated: (1) in a subline of CCRF-CEM (araC 8C) deficient in the es (or ENT1) facilitated diffusion nucleoside transport system (this is the only nucleoside transporter present in CCRF-CEM cells); and (2) in the presence of specific inhibitors of the es nucleoside transporter. […] Note that potentiation by Z is large in these studies because they were performed in HBSS to avoid binding of inhibitors by serum proteins and Z potentiation is higher in HBSS than in RPMI1640. […] Concentration-dependence studies are proposed to quantitate the potency of each inhibitor (IC50).

The conditions of series [6]: human, in vivo; cited from earlier work.
In series [7] the test system is R2 clones transfected with human RFC expression plasmid. Kind of series: [3H]MTX transport in RFC-transfected R2 clones. It counts as cell-based. On the procedure:
To further confirm the involvement of RFC, we transfected the RFC-negative R2 subline of CCRF-CEM with a human RFC expression plasmid. Stably expressing clones were selected in 2 nM leucovorin (LV)-containing RPMI 1640 medium (R2 cannot replicate in this medium, while parental RFC-expressing CCRF-CEM can replicate). […] This supports RFC as mediating the transport potentiated by Z.

Series [8] relates to CCRF-CEM cells. In words: [3H]leucovorin uptake in CCRF-CEM cells. The format is cell-based, human. The conditions noted are these: pre-incubation with Z alone, 1 μM [3H]LV. On the procedure: as §1
Series [9] relates to K562 human chronic myelogenous leukemia cell line. Kind of series: [3H]MTX influx in K562 cells. The format is cell-based. The conditions noted are these: 0.5 mM Z; data not shown.
[10] abbreviates: influx of [3H]MTX, pre-incubation with solvent (MTX alone), 1 μM TMTX, or 1 μM TMTX + 0.5 mM Z.
The mark [11] stands for this setting: 4 hr exposure to 2 μM [3H]MTX, Z 500 μM where present.
The mark [12] stands for this setting: 500 μM Z, 4 hr exposure to 2 μM [3H]MTX.

Bounds are passed on as bounds.

As for `CN(Cc1cnc2nc(N)nc(N)c2n1)c1ccc(C(=O)N[C@@H](CCC(=O)O)C(=O)O)cc1` [MTX, 4-amino-10-methylpteroylglutamic acid], in series [1] (setting [10]), the Kt was found to be 3.0 ± 0.8 µM and the Vmax is recorded as 5.8 ± 0.9 pmol/min/10^7 cells. In the series on CCRF-CEM cells [2] (absence of Z), the “Intracellular radiolabel that is MTX at 30 min (HPLC)” value turned out to be 86%, the “Intracellular radiolabel that is MTX-γ-Glu at 30 min (HPLC)” value came to 12%, the “Q10 for extent of [3H]MTX uptake at 30 min” value came out at 3.45±0.15 and the “Q10 for vi of [3H]MTX uptake (37° vs. 27°)” value was 4.6±0.3. Further, the “Vmax/Kt from vi (0-5 min) data” value in the series with CCRF-CEM cells [2] (absence of Z) was 0.44. Also, in the series on CCRF-CEM cells [2] (presence of 0.5 mM Z), the “Q10 for extent of [3H]MTX uptake at 30 min” value worked out at 3.65±0.15, the “Q10 for vi of [3H]MTX uptake (37° vs. 27°)” value is 5.9±0.1 and the “Vmax/Kt from vi (0-5 min) data” value was found to be 0.47. The “[MTX]i/[MTX]e at 30 min” value in the series on CCRF-CEM cells [2] (presence of 0.5 mM Z, all MTX concentrations 1-10 μM, assuming 0.55 pL/cell) was no less than 1.9. In the series with CCRF-CEM cells [2] (presence of Z), the “Intracellular radiolabel that is MTX at 30 min (HPLC)” value came to 83%, the “Intracellular radiolabel that is MTX-γ-(Glu)2 at 30 min (HPLC)” value was less than 1% and the “Intracellular radiolabel that is MTX-γ-Glu at 30 min (HPLC)” value is on record as 7.5%. For the same compound, the “Efflux t1/2” value in the series on CCRF-CEM cells [3] (loading and efflux each ±0.5 mM Z (cross-over), 2 μM [3H]MTX) fell in the range of 14.6 to 18.7 min. Besides, in series [4] (setting [11]), the “4-NH2-10-CH3-PteGlun, N ≧ 3” value was 3.8 pmol/10^7 cells; the “4-NH2-10-CH3-PteGlun, n = 1 (MTX)” value amounted to 26.2 pmol/10^7 cells; the “4-NH2-10-CH3-PteGlun, n = 2” value was 23.8 pmol/10^7 cells; the “4-NH2-10-CH3-PteGlun, n = 3” value was found to be 2.3 pmol/10^7 cells. In series [4] (setting [11]), the “4-NH2-10-CH3-PteGlun, n = 4” value was 1.4 pmol/10^7 cells; the “4-NH2-10-CH3-PteGlun, n = 5” value is given as 0.1 pmol/10^7 cells; the “4-NH2-10-CH3-PteGlun, n ≧ 2” value turned out to be 27.6 pmol/10^7 cells; the Total drug was 53.8 pmol/10^7 cells.

Regarding `NC(=O)c1ncn([C@@H]2O[C@H](CO)[C@@H](O)[C@H]2O)c1N` [Z, 5-amino-4-imidazolecarboxamide riboside], in series [5], the “Potentiation of [3H]MTX uptake in araC 8C subline” value is “no potentiation”. The “Increase of Vmax of MTX influx” value in [1] (Z addition in presence of TMTX) is recorded as “≈ 3 fold”. In addition, the “Potentiation of 30 min accumulation (highest)” value in the series with CCRF-CEM cells [2] (0.5 mM Z, 10 μM [3H]MTX) was 6 fold. In addition, in the series with CCRF-CEM cells [2] (0.5 mM Z, HBSS), the “Potentiation of accumulation at 30 min” value was “≈ 4 fold”. Also, in the series on CCRF-CEM cells [2] (0.5 mM Z, MHS), the “Potentiation of accumulation at 30 min” value is “≈ 2 fold”. Besides, in the series on CCRF-CEM cells [2] (0.5 mM Z, standard medium), the “Potentiation of accumulation at 30 min” value is on record as “≈ 2 fold”. The “Effect on initial influx velocity (vi; 0-5 min)” value in the series with CCRF-CEM cells [2] (Z added 5 min before 2 μM [3H]MTX) is reported as “does not affect vi”. Moreover, the “Delay before potentiation of [3H]MTX uptake” value with CCRF-CEM cells [2] (Z added 10 min after [3H]MTX, data not shown) is no less than 5 min. In the series on CCRF-CEM cells [2] (Z at 0.5-1.0 mM, 2 μM [3H]MTX), the “Increase of MTX accumulation at 30 min” value was no less than 3 fold. The “Onset of potentiation of [3H]MTX uptake” value in the series with CCRF-CEM cells [2] (Z present with TMTX in 10 min preincubation) was “no delay in potentiation”. Moreover, the “Delay before the onset of Z potentiation” value in the series with CCRF-CEM cells [2] (all levels of MTX (1-10 μM), 0.5 mM Z) is given as “≈ 10 min”. Moreover, in series [6], the “Toxicity in clinical trials” value was “nontoxic”. In addition, in [7], the “Potentiation of [3H]MTX transport in RFC-transfected clones compared with CCRF-CEM” value is “potentiated by Z to a similar extent”. Also, in the series with CCRF-CEM cells [3] (0.5 mM Z during uptake and/or efflux), the “Effect on MTX efflux rates” value was “No significant difference”. In addition, in series [4] (setting [12]), the “Increase of MTX polyglutamates (n≧2) accumulation” value worked out at 3.5 fold, the “Increase of longer MTX polyglutamates (n≧3)” value is on record as 6 fold and the “Increase of total drug accumulation” value turned out to be 3 fold. For the same compound, in [4] (500 μM Z, data not shown), the “MTXGn accumulation at 1 and 10 μM [3H]MTX” value was “Increased MTXGn accumulation”. Moreover, the “Drug retained after 2 hr efflux following 4 hr uptake” value in [4] (cells initially treated with Z, data not shown) is recorded as “much higher levels of drug”. Moreover, the “Potentiation of [3H]LV uptake” value with CCRF-CEM cells [8] is on record as “does not potentiate”. In addition, the “Potentiation of [3H]MTX influx” value in [9] was “potentiates”.
